# Source: patent publication CN112843052A, “新型表观遗传因子抑制剂2800z在制备抗肝癌药物增敏剂中的应用” (Hunan Normal University, priority 2021, dated 2021)
# Legend:
# HEPG2 cells [HEPG2细胞] [1] = details: known IC50 value of the chemotherapeutic drug; cell line not printed in the clause; cited from earlier work
# [2] = test system: mouse liver cancer (subcutaneous HEPG2 cells in nude mice) [小鼠肝癌]; assay: In vivo anti-liver-cancer experiment (体内抗肝癌实验), subcutaneous HEPG2 tumours in nude mice; details: 14 days, i.p. three times per week for two weeks
# HEPG2 cells [HEPG2细胞] [3] = assay: In vitro cytotoxicity experiment (体外细胞毒性实验); format: cell-based; details: sorafenib 4 uM, 2800Z 60 uM, each alone or combined, 12, 24, 36 h
# [4] = sorafenib 1 mg/kg, 2800Z 4 mg/kg, each alone or combined
smiles,measurement,setting,value
"CNC(=O)c1cc(Oc2ccc(NC(=O)Nc3ccc(Cl)c(C(F)(F)F)c3)cc2)ccn1 [索拉菲尼, Sorafenib]",IC50,HEPG2 cells [HEPG2细胞] [1],10 µM
same,liver cancer volume compared with the untreated group (in words),[2]; sorafenib 1 mg/kg or 2800Z 4 mg/kg,与未给药组的结果相近
same,inhibition of mouse liver cancer (in words),[2]; [4],抑制作用较弱
same,liver cancer (tumour) volume,[2]; [4],~1000 mm3
same,cytotoxicity (in words),HEPG2 cells [HEPG2细胞] [3],细胞毒性较差
